Experimental data: patent US6573278B2, “Aryl sulfonamides and analogues thereof and their use in the treatment of neurodegenerative diseases” (Bayer Aktiengesellschaft, priority 1997, dated 2003)
Where a name gives a salt, the structure may show the parent alone. Marks after values point to notes of the source that are not given here. One block for each compound: values may come before it.

Tests used:
[1] = target: T1, rat CB1 receptor (Rattus norvegicus, UniProt P20272); assay: CB1 luciferase reporter gene test (CHOluc9 cells, forskolin-stimulated); assay type: cell-based; details: CHOluc9 cells with rat CB1, forskolin
T1 construct: contains an open reading frame of 1419 base pairs which corresponds to a protein of 473 amino acids; expressed in transfected cells; host or cells: CHOluc9 cells, stably transfected with plasmid CMV-RH (pRc/CMV)
T1 sequence (P20272 whole entry): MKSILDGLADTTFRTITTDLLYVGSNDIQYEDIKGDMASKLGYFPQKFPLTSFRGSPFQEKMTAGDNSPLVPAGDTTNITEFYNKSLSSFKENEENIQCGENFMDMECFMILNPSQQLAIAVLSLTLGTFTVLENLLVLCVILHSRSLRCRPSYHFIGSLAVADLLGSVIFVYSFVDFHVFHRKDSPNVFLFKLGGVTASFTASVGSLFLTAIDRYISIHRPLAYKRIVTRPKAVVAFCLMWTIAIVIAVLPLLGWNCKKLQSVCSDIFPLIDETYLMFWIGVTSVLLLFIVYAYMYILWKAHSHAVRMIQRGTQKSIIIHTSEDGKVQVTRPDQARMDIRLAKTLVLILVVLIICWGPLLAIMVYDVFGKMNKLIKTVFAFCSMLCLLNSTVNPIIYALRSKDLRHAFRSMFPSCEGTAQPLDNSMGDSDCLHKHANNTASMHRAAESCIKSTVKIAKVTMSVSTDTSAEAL
Protocol: CB1—Luciferase Reporter Gene Test
1. Cloning of the Rat Cannabinoid Receptor CB1
Total RNA from rat brain (the tissue was taken from freshly killed animals and shock-frozen in liquid nitrogen) was isolated by acidic guanidinium thiocyanate/phenol/chloroform extraction (J. Biol. Chem. 1979, 18, 5294) and converted into cDNA by means of reverse transcriptase and random primers (in each case from Invitrogen). The polymerase chain reaction (PCR, conditions: 4 min 94° C., 1×; 1 min 94° C.; 2 min 53° C.; 1 min 72° C., 50 cycles; 1 min 94° C., 2 min 53° C., 4 min 72° C., 1×) was carried out in a Perkin Elmer thermocycler using the enzyme Taq polymerase (Perkin Elmer); the oligonucleotide primers employed (bases 99 to 122: 5′→3′, “down”; 1556-1575: 3′←5′, “up”) were derived from the published sequence of the rat cannabinoid receptor (Nature 1990, 346, 561) and were synthesized on a DNA synthesizer, model 1380 from Applied Biosystems. One part of the PCR reaction was separated in a 1% strength agarose gel in 1× TBE buffer and then stained with ethidium bromide, only one band having the expected length being visible (approximately 1.5 kb). This PCR product was subcloned into the TA cloning vector (Invitrogen) and the nucleotide sequence of the inserts was determined by the dideoxynucleotide chain termination reaction using T7DNA polymerase (Sequenase, USA/Amersham). The insert has a length of 1477 base pairs and contains an open reading frame of 1419 base pairs which corresponds to a protein of 473 amino acids. The number of base pairs, the position of the open reading frame and the number of amino acids agree with the published sequence. Computer analyses were carried out with the aid of the GCG software suite (Genetic Computer Group). The cDNA insert was subcloned into the expression vector pRc/CMV after partial digestion with HindIII and NotI (Biolabs). This construct (plasmid CMV-RH) was employed for transfection experiments.
2. Stable Transfection of the CHOluc9 Reporter Cells
CHOluc9 cells were cultured in 50% Dulbecco's modified Eagle medium/50% F-12 (DMEM/F12) which contained 10% foetal calf serum (FCS). Transfections were prepared in 6-well plates. 7.5 μg of Qiagen-purified CMV-RH plasmid DNA were added per […] with the DOTAP transfection system, corresponding to the experimental protocol of the manufacturer (Boehringer Mannheim). Transfected cells were selected using 1 mg/ml G418 and individual clones were obtained by limiting dilution in 96-well plates. Cell lines which express the cannabinoid receptor were identified for the inhibition of reporter gene expression after incubation with the cannabinoid receptor agonist, WIN-55,212-2, in the presence of forskolin. Several stable transfected and subcloned cell lines were further characterized by means of RT-PCR, as described under 1.
3. Test Optimization and Pharmacological Characterization of the CHOCB1 Reporter Cell Line
With the aim of high sensitivity and reproducibility, low variance and high suitability for carrying out on the robotic system, the luciferase test was optimized by variation of several test parameters, such as, for example, cell density, duration of the growth phase and the test incubation, forskolin concentration, medium composition. […]

[2] = target: T2, CB1 receptor (rat cortex membranes) (Rattus norvegicus, UniProt P20272); assay: Binding studies on rat cortex membranes; details: read-out: Ki, affinity for the CB1 receptor (rat cortex membranes)
T2 construct: from tissue; host or cells: rat cortex membranes
T2 sequence (P20272 whole entry): as above
Protocol: Binding Studies on Rat Cortex Membranes
Membrane protein is prepared from different tissues or from cells by standard methods. Buffer, labelled ligand, DMSO or test substance are pipetted together, then 100 μg of protein are added, and the mixture is well mixed and incubated in a water bath at 30° C. for 60 min. After expiry of the incubation time, the reaction is stopped by addition of ice-cold incubation buffer to each tube. After filtering off, washing is carried out with ¾ ml of incubation buffer. The filters are transferred to minivials and the radioactivity is determined in a scintillation counter. Affinity for the CB1 receptor (rat cortex membranes)

[3] = Rat hypothermia, agonism testing; assay type: in vivo; details: i.v.
Protocol: Five minutes after determination of the basal body temperature via an oesophageal temperature probe, the test substance is administered (i.v.). A control group receives only the solvent for the test substances, likewise i.v. The body temperature is measured 7.5, 15, 30 and 60 minutes after i.v. administration. The group size per dose is 5-7 animals (rats).
Rat hypothermia—Agonism testing

[4] = test system: permanent focal cerebral ischaemia (MCA-O); assay: Permanent focal cerebral ischaemia in the rat (MCA-O); assay type: in vivo; details: infarct size after 7 days
Protocol: Permanent Focal Cerebral Ischaemia in the Rat (MCA-O)
Under isoflurane anaesthesia, the median cerebral artery is exposed on one side and the latter and its side branches are irreversibly sealed by means of electrocoagulation. As a result of the intervention a cerebral infarct is formed. During the operation, the body temperature of the animal is kept at 37° C. After wound closure and wearing off of the anaesthesia, the animals are again released into their cage. The administration of substance is carried out according to different time schemes and via different administration routes (i.v., i.p.) after occlusion. The infarct size is determined after 7 days. To do this, the brain is removed, worked up histologically and the infarct volume is determined with the aid of a computer-assisted analysis system.
Activity in the model of permanent focal cerebral ischaemia (MCA-O)

[5] = test system: subdural haematoma in the rat (SDH); assay: Subdural haematoma in the rat (SDH); assay type: in vivo
Protocol: Subdural Haematoma in the Rat (SDH)
Under anaesthesia, the animal's own blood is injected subdurally on one side An infarct is formed under the haematoma. Substance administration is carried out according to different time schemes and via different administration routes (i.v., i.p.) The determination of the infarct size is carried out as described in the model of permanent focal ischaemia in the rat (MCA-O)
Activity in the model “subdural haematoma in the rat (SDH)”

[6] = 0.03 mg/kg/h, i.v. continuous infusion directly up to 4 hours after occlusion
[7] = 0.1 mg/kg, i.v. bolus injections directly, 2 and 4 hours after occlusion

melting point: 95 °C
Compound: CCCOS(=O)(=O)Nc1ccc(Oc2cccc3ccccc23)cc1

melting point: 113 to 115 °C
Compound: CCCNS(=O)(=O)Nc1ccc(Oc2cccc3ccccc23)cc1

melting point: 80 °C
Compound: CCCCC(=O)Nc1ccc(Oc2cccc3ccccc23)cc1

melting point: 144 to 146 °C
Compound: O=S(=O)(NCc1ccccc1)c1ccc(Oc2cccc3ccccc23)cc1

melting point: 187 °C
Compound: CCCCCS(=O)(=O)Nc1ccc(Oc2cccc3c2CCN(CCCC)C3)cc1

melting point: 143 °C
Compound: CCCCCS(=O)(=O)Oc1ccc(Oc2cccc3c2CCNC3)cc1

melting point: 180 °C
Compound: CCC(=O)Nc1ccc(Oc2ccc(NS(=O)(=O)Cc3ccccc3)cc2)c2ccccc12

melting point: 135 to 137 °C
Compound: CCCCCS(=O)(=O)Nc1ccc(Oc2cccc3c2CC(CO)(CO)C3)cc1

melting point: 161 °C
Compound: CCCCS(=O)(=O)Nc1ccc([S+]([O-])c2cccc3ccccc23)cc1 (stereo not drawn)

melting point: 180 °C
Compound: CCCCS(=O)(=O)Nc1ccc(S(=O)(=O)c2cccc3ccccc23)cc1

melting point: 138 to 139 °C
Compound: CCCC[S+]([O-])Nc1ccc(Oc2cccc3ccccc23)cc1 (stereo not drawn)

melting point: 162 °C
Compound: CCCCCS(=O)(=O)N(c1ccc(Oc2cccc3c2CCNC3)cc1)S(=O)(=O)CCCCC (as salt: hydrochloride)

melting point: 252 °C
Compound: Nc1ccc(Oc2ccc(NS(=O)(=O)Cc3ccccc3)cc2)c2ccccc12 (as salt: hydrochloride)

Compound: CCCCS(=O)(=O)Nc1ccc(Oc2cccc3ccccc23)cc1 [Example 1, 1-N-(1-Butylsulfonyl)amino-4-(naphthyl-1-oxy)benzene]
IC50 [1]: 15 nM
Ki [2]: 590 nM
ED−1° C., effective dose for 1° C. body temperature reduction [3]: 1.0 ^b) mg/kg
% Reduction in the infarct volume [4, 6]: 35%
% Reduction in the infarct volume [5, 7]: 54%
% Reduction in the infarct volume ([5]; 1.0 mg/kg, i.v. bolus injections directly, 2 and 4 hours after occlusion): (84) %
melting point: 108 to 109 °C

Compound: O=S(=O)(Cc1ccccc1)Nc1ccc(Oc2cccc3ccccc23)nc1 [Example 33]
IC50 [1]: 10 nM
Ki [2]: 420 nM
ED−1° C., effective dose for 1° C. body temperature reduction [3]: 0.6 ^b) mg/kg
% Reduction in the infarct volume [4, 7]: 33%
% Reduction in the infarct volume [5, 7]: 42%
melting point: 161 to 162 °C

Compound: O=S(=O)(Cc1ccccc1)Nc1cccc(Oc2cccc3ccccc23)c1 [Example 51]
IC50 [1]: 0.9 nM
Ki [2]: 41 nM
ED−1° C., effective dose for 1° C. body temperature reduction [3]: 0.1 ^b) mg/kg
% Reduction in the infarct volume [4, 7]: 24%
% Reduction in the infarct volume ([5]; 0.01 mg/kg/h, i.v. continuous infusion directly up to 4 hours post-trauma): 54%
melting point: 139.5 °C

Compound: O=S(=O)(CCCCl)Nc1ccc(Oc2cccc3ccccc23)cc1 [Example 65]
IC50 [1]: 13 nM
Ki [2]: 250 nM
ED−1° C., effective dose for 1° C. body temperature reduction [3]: 1.0 ^b) mg/kg
% Reduction in the infarct volume ([4]; 0.01 mg/kg/h): (47) %
% Reduction in the infarct volume [4, 6]: 37%
% Reduction in the infarct volume [5, 7]: 53%
% Reduction in the infarct volume ([5]; 0.3 mg/kg/h, i.v. continuous infusion directly up to 4 hours post-trauma): (65) %
melting point: 115 °C

Compound: CCCCCS(=O)(=O)Oc1ccc(Oc2cccc3ccccc23)cc1 [Example 99]
IC50 [1]: 2.9 nM
ED−1° C., effective dose for 1° C. body temperature reduction [3]: 0.6 ^b) mg/kg
